# According to patent US9783532B2, “Molecules having certain pesticidal utilities, and intermediates, compositions, and processes related thereto” (Dow AgroSciences LLC, priority 2013, dated 2017):
# Columns and labels:
# Type in all cases: in vivo
# [1] = system: Beet Armyworm (Spodoptera exigua) ("BAW"); test: Bioassay on beet armyworm (BAW), 128-well diet tray assay; conditions: 168 h, 50 μg/cm^2 on artificial diet, second instar BAW larvae, 25° C., five to seven days, average of eight wells, read-out: BAW % Control (or Mortality) rating
# Outline: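 Percent mortality, averaged across eight wells, was read after five to seven days at 25° C. under 14:10 light-dark. Each well held one to five second-instar larvae on artificial diet that had been treated with 50 μg/cm^2 compound in 90:10 acetone-water and dried.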
# [2] = system: Cabbage Looper (Trichoplusia ni) ("CL"); test: Bioassay on cabbage looper (CL), 128-well diet tray assay; conditions: 168 h, 50 μg/cm^2 on artificial diet, second instar CL larvae, 25° C., five to seven days, average of eight wells, read-out: CL % Control (or Mortality) rating
# Outline: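 Percent mortality, averaged across eight replicate wells, was read after five to seven days at 25 °C under a 14:10 photoperiod. Each well held one to five second-instar T. ni on diet carrying a dried 50 μg/cm^2 dose applied in acetone-water 90:10.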
# [3] = system: Green Peach Aphid ("GPA") (Myzus persicae); test: Bioassay on green peach aphid (GPA), foliar spray on cabbage seedlings; conditions: Myzus persicae, foliar, 72 h; 200 ppm spray on infested cabbage seedlings, three days, Abbott corrected % control; read-out: GPA % Control (or Mortality) rating
# Description: Certain molecules disclosed in this document were tested against GPA using procedures described in the following example. In the reporting of the results, the “GPA Rating Table” was used (See Table Section).
# Cabbage seedlings grown in 3-inch pots, with 2-3 small (3-5 cm) true leaves, were used as test substrate. The seedlings were infested with 20-50 GPA (wingless adult and nymph stages) one day prior to chemical application. Four pots with individual seedlings were used for each treatment. Test compounds (2 mg) were dissolved in 2 mL of acetone/methanol (1:1) solvent, forming stock solutions of 1000 ppm test compound. The stock solutions were diluted 5× with 0.025% Tween 20 in water to obtain the solution at 200 ppm test compound. A hand-held aspirator-type sprayer was used for spraying a solution to both sides of […] leaves until runoff. Reference plants (solvent check) were sprayed with the diluent only containing 20% by volume of acetone/methanol (1:1) solvent. Treated plants were held in a holding room for three days at approximately 25° C. and ambient relative humidity (RH) prior to grading. Evaluation was conducted by counting the number of live aphids per plant under a microscope. Percent Control was measured by using Abbott's correction formula (W. S. Abbott, “A Method of Computing the Effectiveness of an Insecticide” J. Econ. Entomol. 18 (1925), pp. 265-267) as follows. Corrected % Control=100*(X−Y)/X • where • X=No. of live aphids on solvent check plants and • Y=No. of live aphids on treated plants
# [4] = system: Yellow Fever Mosquito "YFM" (Aedes aegypti); conditions: about 1 day-old larvae, 96-well plate, room temperature, 3 days, mortality
# Outline: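 About 1 day-old Aedes aegypti larvae in liver-powder water added to wells holding compound diluted from 4000 ppm DMSO stock with 90:10 water:acetone, 6 replicate plates. Plates kept covered at room temperature for 3 days. Wells scored for mortality and reported as rating categories.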
SMILES,mortality at 50 µg/cm2 [1],mortality at 50 µg/cm2 [2],mortality at 200 ppm [3],YFM % Control (or Mortality) rating [4]
"CCc1ccccc1N1C(=O)CS/C1=N\C(=O)NCCCCc1ccc(-c2ncn(-c3ccc(OC(F)(F)F)cc3)n2)cc1 [P145, P522, (Z)-1-(3-(2-ethylphenyl)-4-oxothiazolidin-2-ylidene)-3-(4-(4-(1-(4-(trifluoromethoxy)phenyl)-1H-1,2,4-triazol-3-yl)phenyl)butyl)urea]",50 to 100%,50 to 100%,0%,A (80-100)
"Cc1ccc(C(C)C)c(N2C(=O)CS/C2=N\C(=O)NCCCCc2ccc(-c3ncn(-c4ccc(OC(F)(F)F)cc4)n3)cc2)c1 [P150, P363, (Z)-1-(3-(2-isopropyl-5-methylphenyl)-4-oxothiazolidin-2-ylidene)-3-(4-(4-(1-(4-(trifluoromethoxy)phenyl)-1H-1,2,4-triazol-3-yl)phenyl)butyl)urea]",50 to 100%,50 to 100%,0 to 80%,A (80-100)
"Cc1ccc(C(C)C)c(N2C(=O)CS/C2=N\C(=O)NCCCCc2ccc(-c3ncn(-c4ccc(C(F)(F)F)cc4)n3)cc2)c1 [P159, (Z)-1-(3-(2-isopropyl-5-methylphenyl)-4-oxothiazolidin-2-ylidene)-34-(4-(4-(1-(4-(trifluoromethyl)phenyl)-1H-1,2,4-triazol-3-yl)phenyl)butyl)urea]",50 to 100%,50 to 100%,0 to 80%,A (80-100)
